Several values for one entry are separate records, joined by “and”; a condition that tells them apart may be missing. Identical values can stand only once. Entries after “also recorded” stand apart in the source; their conditions may differ. Like-named read-outs stand apart in the source and are kept apart here.
Experiments:
[1] = tested on: M-1 Clone 20; human primary cyst epithelial cells (ADPKD cells); experiment: MTT cell proliferation assay with cAMP (FIGS. 9A-9B); format: cell-based; conditions: 48 hours
Protocol: Various compounds were tested for their effects on cell proliferation. In the study, the cell types were M-1 Clone 20, which is an immortalized cell line that mimics PKD, and human primary cyst epithelial cells, or ADPKD cells. The compounds were tested at 1 μM to 100 μM concentrations.
M-1 clone 20 (“M1 Clone 20”) cells are a model of PKD-like cells, which were created by stably transfecting parental “normal” M-1 immortalized renal cortical collecting duct cells with the C-terminal cytosolic domain (or C-tail) of mouse polycystin-1 (the protein product of the Pkd1 gene. The overexpressed C-tail acts in a dominant-negative fashion, conferring the PKD phenotype to these cells. Their characterization is described in: Sutters, M., Yamaguchi, T., Maser, R. L., Magenheimer, B. S., St. John, P. L., Abrahamson, D. R., Grantham, J. J. and Calvet, J. P. (2001) Polycystin-1 transforms the cAMP growth-responsive phenotype of M-1 cells. Kidney Int. 60, 484-494.
FIGS. 9A-9B include graphs that show cells grown in the vehicle (i.e. DMSO at two different volumes of 1 uL and 5 uL respectively), cAMP only, and then under the treatment drugs, all of which also had cAMP in them. The comparison drug used was 10 uM of gamendazole. […] Absorbance is a measure of cell number.
The comparison drug used was 10 uM Gamendazole. The MTT cell proliferation assay was carried out to assess cell number—cell proliferation is essentially cell number. […] Thus, absorbance is a measure of cell number, or cell proliferation. The reference bar is the third bar from the left (cAMP)—the degree of inhibition should be compared to that bar.

Male Long Evans rats [2] = experiment: In vivo antispermatogenic testing in Long Evans rats; conditions: for Mortality (25 mg/kg) / Response 25 mg/kg: 25 mg/kg single i.p. injection; for Response 25 mg/kg / Response 200 mg/kg: animals responding out of animals surviving, five days following injection; for Mortality (200 mg/kg) / Response 200 mg/kg: 200 mg/kg single i.p. injection
[3] = tested on: Salmonella Typhimurium TA 100; experiment: Ames test for mutagenicity (plate assay, colony count); conditions: 48 hours at 37° C.; for Ames test (+)S9 0.1 mg/pl. / Ames test (+)S9 1 mg/pl. / Ames test (+)S9 10 mg/pl.: (+)S9 mix; for Ames test (−)S9 0.1 mg/pl. / Ames test (−)S9 1 mg/pl. / Ames test (−)S9 10 mg/pl.: (−)S9 mix
rats = experiment: Toxicology: organs sectioned and examined after dosing; format: in vivo; conditions: 25 mg/kg, two animals examined, findings per animal
fruitfly = experiment: Reproduction of fruitfly; format: in vivo, Drosophila (fruitfly); conditions: provided to a fruitfly
Description: Several known Hsp90 inhibitors are listed above. With regard to HSP90, RC-MC-110 likely a novel inhibitor of the N-terminal ATP binding site or a novel site on Hsp90. It should be noted that mutants of Hsp90 in Drosophila (fruitfly) produce sterile males and females. […] Genetics. 1999 March; 151(3):1065-79.

Male Long Evans rats [4] = conditions: rat, in vivo, 5 days

| Structure (SMILES) | Inhibition of cell proliferation (MTT absorbance) ([1]; 25 uM) | Mortality (25 mg/kg) (Male Long Evans rats [2]) | Response 25 mg/kg (Male Long Evans rats [2]) | Mortality (200 mg/kg) (Male Long Evans rats [2]) | Response 200 mg/kg (Male Long Evans rats [2]) | Ames test (+)S9 0.1 mg/pl. [3] | Ames test (+)S9 1 mg/pl. [3] | Ames test (+)S9 10 mg/pl. [3] | Ames test (−)S9 0.1 mg/pl. [3] | Ames test (−)S9 1 mg/pl. [3] | Ames test (−)S9 10 mg/pl. [3] | Inhibition of cell proliferation (MTT absorbance) ([1]; 10 uM) | Toxicology: liver, lung, pancreas, spleen, heart and kidney (histology) (rats) | Reproduction of fruitfly (fruitfly) | Mortality (25 mg/kg) (Male Long Evans rats [4]) | Mortality (200 mg/kg) (Male Long Evans rats [4]) |
| --- | --- | --- | --- | --- | --- | --- | --- | --- | --- | --- | --- | --- | --- | --- | --- | --- |
| Cc1ccc2c(C(=O)O)nn(Cc3ccc(Cl)cc3Cl)c2c1 [TH-2-178, 1-(2,4-dichlorobenzyl)-6-methyl-1H-indazole-3-carboxylic acid] | more effective in inhibition of cell proliferation at 25 uM compared to 10 uM | 0/5 | 0/5 | 0/5 | 4/5 | Pass | Pass | Pass | Pass | Pass | Pass |  |  |  |  |  |
| Cc1ccc2c(C(=O)NN)nn(Cc3ccc(Cl)cc3Cl)c2c1 [TH-2-179, 1-(2,4-dichlorobenzyl)-6-methyl-1H-indazole-3-carboxylic acid hydrazide] | more effective in inhibition of cell proliferation at 25 uM compared to 10 uM | 0/5 | 2/5 | 0/5 | 5/5 | Pass | Pass | Pass | Pass | Pass | Pass | more effective at 10 uM |  |  |  |  |
| Cc1ccc2c(/C=C/C(=O)O)nn(Cc3ccc(Cl)cc3Cl)c2c1 [TH-2-192, 3-[1-(2,4-dichlorobenzyl)-6-methyl-1H-indazol-3-yl]acrylic acid] | more effective in inhibition of cell proliferation at 25 uM compared to 10 uM | 0/5 | 0/5 | 4/5 | 0/4 | Pass | Pass | Pass | Pass | Pass | Pass |  |  |  |  |  |
| O=C(O)c1nn(Cc2ccc(Cl)cc2Cl)c2ccccc12 [Lonidamine, 1-(2,4,-dichlorobenzyl)-1H-indazole-3-carboxylic acid] |  |  | 2/5 |  | 5/5 |  |  |  |  |  |  |  | liver, lung, pancreas, spleen, heart and kidney all appeared normal | inhibited reproduction | 0/5 | 0/5 |
| NNC(=O)c1nn(Cc2ccc(F)cc2Cl)c2cc(Cl)ccc12 [JWS-2-22, 1-(2-chloro, 4-fluorobenzyl)-6-chloro-1H-indazole-3-carboxylic acid hydrazide] | quite effective in inhibiting cell proliferation |  |  |  |  | Pass | Pass | Pass | Pass | Pass | Pass |  |  |  |  |  |
| O=C(O)/C=C/c1nn(Cc2ccc(Cl)cc2Cl)c2cc(Cl)ccc12 [JWS-1-190, 3-[1-(2,4-dichlorobenzyl)-6-chloro-1H-indazol-3-yl]-acrylic acid] | quite effective in inhibiting cell proliferation | 0/5 |  |  | 0/0 and 2/5 | Pass | Pass | Pass | Pass | Pass | Pass | very effective | The lung did have multiple, scattered hemorrhagic patches in the alveolar clusters; also recorded: liver, lung, pancreas, spleen, heart and kidney all appeared within normal limits |  |  |  |
| NNC(=O)c1nn(Cc2ccc(F)cc2F)c2cc(Cl)ccc12 [JWS-1-282, 1-(2,4-difluorobenzyl)-6-chloro-1H-indazole-3-carboxylic acid hydrazide] | quite effective in inhibiting cell proliferation |  |  |  |  | Pass | Pass | Fail | Pass | Pass | Pass |  |  |  |  |  |
